Test results published in patent US6794560B2, “Nucleic acid encoding GAI gene of Arabidopsis thaliana” (Pioneer Hi-Bred International, Inc., priority 1996, dated 2004).

Assays:
plants = conditions: reduces endogenous GA levels; cited from earlier work
kaurene oxidase reaction = target: T1, kaurene oxidase reaction (Arabidopsis thaliana, UniProt Q93ZB2); conditions: cited from earlier work
T1 sequence (Q93ZB2 1-509): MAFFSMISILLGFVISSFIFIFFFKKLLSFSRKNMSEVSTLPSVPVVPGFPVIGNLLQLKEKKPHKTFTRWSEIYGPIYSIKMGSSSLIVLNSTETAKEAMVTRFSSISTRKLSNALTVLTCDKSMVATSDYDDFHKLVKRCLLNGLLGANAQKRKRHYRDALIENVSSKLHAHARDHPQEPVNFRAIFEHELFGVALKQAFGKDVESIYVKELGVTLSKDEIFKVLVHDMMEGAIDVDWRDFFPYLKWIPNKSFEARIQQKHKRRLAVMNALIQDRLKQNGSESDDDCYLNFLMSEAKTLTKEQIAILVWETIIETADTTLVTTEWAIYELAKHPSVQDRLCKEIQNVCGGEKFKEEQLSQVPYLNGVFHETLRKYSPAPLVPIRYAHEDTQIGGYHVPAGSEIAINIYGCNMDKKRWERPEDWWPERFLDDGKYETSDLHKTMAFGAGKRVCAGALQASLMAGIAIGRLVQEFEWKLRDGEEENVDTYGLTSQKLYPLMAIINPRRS

gai-t6 mutant = assay: growth on medium containing paclobutrazol; format: in vivo, Arabidopsis thaliana; conditions: grown on medium containing paclobutrazol
From the text: The slender mutants of pea and barley are resistant to the dwarfing effects of paclobutrazol^38-42, as is the Arabidopsis constitutive GA-response mutant spy^43,44. Thus, in these mutants stem elongation is at least partially uncoupled from the GA-mediated control characteristic of normal plants. […] Put another way, a GAI null mutant appears to require less endogenous GA to achieve a certain degree of growth than does a normal plant. GA-dependency is not completely abolished by gai-t6 possibly because the products of genes related in sequence to GAI (see above) can substantially, but not completely, compensate for loss of GAI function.

gai mutants = conditions: cited from earlier work
[1] = system: stimulation of cell elongation, leaf senescence or elicitation of the cereal aleurone α-amylase response; conditions: structure-activity statement; cited from earlier work

Compound | response of gai mutants to GA treatment (gai mutants) | biological activity of gibberellin [1] | other results
CC(C)(C)[C@@H](O)[C@@H](Cc1ccc(Cl)cc1)n1cncn1 (racemic) [Paclobutrazol] |  |  | phenotype of plants exposed (plants): conferring a dwarf phenotype; inhibition of GA biosynthesis (kaurene oxidase reaction): specifically inhibits GA biosynthesis; floral bolt stem length of gai-t6 mutants vs GAI control plants (gai-t6 mutant): longer floral bolt stems than GAI control plants
C=C1C[C@]23C[C@@]1(O)CC[C@H]2[C@@]12CC[C@H](O)[C@@](C)(C(=O)O1)[C@H]2[C@@H]3C(=O)O [GA1] | do not respond | high biological activity | 
C=C1C[C@]23C[C@@]1(O)CC[C@H]2[C@@]12C=C[C@H](O)[C@@](C)(C(=O)O1)[C@H]2[C@@H]3C(=O)O [GA3] | do not respond |  | 
C=C1C[C@]23C[C@H]1CC[C@H]2[C@@]12CC[C@H](O)[C@@](C)(C(=O)O1)[C@H]2[C@@H]3C(=O)O [GA4] | do not respond | high biological activity | 
C=C1C[C@]23C[C@H]1CC[C@H]2[C@@]12C=C[C@H](O)[C@@](C)(C(=O)O1)[C@H]2[C@@H]3C(=O)O [GA7] |  | high biological activity | 
C=C1C[C@]23C[C@@]1(O)CC[C@H]2[C@@]12C[C@H](O)[C@H](O)[C@@](C)(C(=O)O1)[C@H]2[C@@H]3C(=O)O [GA8] |  | inactivity | 
C=C1C[C@]23C[C@@]1(O)CC[C@H]2[C@@]12C[C@H](O)C[C@@](C)(C(=O)O1)[C@H]2[C@@H]3C(=O)O [GA29] |  | inactivity | 
C=C1C[C@]23C[C@H]1CC[C@H]2[C@@]12C[C@H](O)[C@H](O)[C@@](C)(C(=O)O1)[C@H]2[C@@H]3C(=O)O [GA34] |  | inactivity | 
C=C1C[C@]23C[C@H]1CC[C@H]2[C@@]12C[C@H](O)C[C@@](C)(C(=O)O1)[C@H]2[C@@H]3C(=O)O [GA51] |  | inactivity | 
